Experimental data taken from ChEMBL document CHEMBL3091339 (J Med Chem, 2013).
Activity calls are given as the source filed them.

How the values were obtained:
[1] = system: Mus musculus; assay: Neurotoxicity in CF-1 mouse at 250 mg/kg, po by rotarod test; assay type: toxicity, organism-based; set-up: dose 250 mg/kg, route oral; settings: in vivo
[2] = system: Mus musculus; assay: Anticonvulsant activity in CD-1 mouse assessed as protection against maximal electroshock-induced tonic extension of hind limbs at 300 mg/kg, ip after 0.5 hrs; assay type: functional, organism-based; set-up: dose 300 mg/kg; settings: Hindlimb
[3] = species on record: Rattus norvegicus; assay: Toxicity in Sprague-Dawley rat assessed as ataxia by Irwin test; assay type: organism-based; settings: in vivo
[4] = system: Mus musculus; assay: Anticonvulsant activity in CD-1 mouse assessed as protection against maximal electroshock-induced tonic extension of hind limbs at 100 mg/kg, po after 0.5 hrs; assay type: functional, organism-based; set-up: dose 100 mg/kg; settings: Hindlimb
[5] = molecular target: Carbonic anhydrase 2 (Homo sapiens, UniProt P00918)
Description: Inhibition of human carbonic anhydrase 2 by CO2 hydration assay

[6] = species on record: Mus musculus; assay: animal or person; settings: CF-1, Hindlimb, po, 1 h
Description: Anticonvulsant activity in po dosed CF-1 mouse assessed as protection against maximal electroshock-induced tonic extension of hind limbs measured at 1 hr

[7] = system: Mus musculus; assay: Neurotoxicity in CF-1 mouse at 150 mg/kg, po by rotarod test; assay type: toxicity, organism-based; set-up: dose 150 mg/kg, route oral; settings: in vivo
[8] = system: Mus musculus; assay: Anticonvulsant activity in CD-1 mouse assessed as protection against maximal electroshock-induced tonic extension of hind limbs at 100 mg/kg, po after 2 hrs; assay type: functional, organism-based; set-up: dose 100 mg/kg; settings: Hindlimb
[9] = system: Rattus norvegicus; assay: Anticonvulsant activity in ip dosed Sprague-Dawley rat hippocampal kindling model assessed as suppression of seizure activity treated 15 for mins post suprathreshold-stimulation; assay type: functional, organism-based; settings: Hippocampus
[10] = system: Rattus norvegicus; assay: Anticonvulsant activity in Sprague-Dawley rat hippocampal kindling model assessed as complete absence of seizure activity at >300 mg/kg, ip treated 15 for mins post suprathreshold-stimulation; assay type: functional, organism-based; settings: Hippocampus
[11] = system: Mus musculus; assay: Anticonvulsant activity in CD-1 mouse assessed as protection against maximal electroshock-induced tonic extension of hind limbs at 300 mg/kg, po after 2 hrs; assay type: functional, organism-based; set-up: dose 300 mg/kg; settings: Hindlimb
[12] = system: Mus musculus; assay: Anticonvulsant activity in CD-1 mouse assessed as protection against maximal electroshock-induced tonic extension of hind limbs at 300 mg/kg, po after 0.5 hrs; assay type: functional, organism-based; set-up: dose 300 mg/kg; settings: Hindlimb
[13] = system: Rattus norvegicus; assay: Anticonvulsant activity in Sprague-Dawley rat hippocampal kindling model assessed as reduction in global seizures at >26 mg/kg, ip treated 15 for mins post suprathreshold-stimulation; assay type: functional, organism-based; settings: Hippocampus
[14] = molecular target: Sodium channel protein type 2 subunit alpha (Rattus norvegicus) (UniProt P04775); assay type: cell-based; settings: CHL1610
Sequence of Sodium channel protein type 2 subunit alpha (Rattus norvegicus) (P04775 whole entry, looked up): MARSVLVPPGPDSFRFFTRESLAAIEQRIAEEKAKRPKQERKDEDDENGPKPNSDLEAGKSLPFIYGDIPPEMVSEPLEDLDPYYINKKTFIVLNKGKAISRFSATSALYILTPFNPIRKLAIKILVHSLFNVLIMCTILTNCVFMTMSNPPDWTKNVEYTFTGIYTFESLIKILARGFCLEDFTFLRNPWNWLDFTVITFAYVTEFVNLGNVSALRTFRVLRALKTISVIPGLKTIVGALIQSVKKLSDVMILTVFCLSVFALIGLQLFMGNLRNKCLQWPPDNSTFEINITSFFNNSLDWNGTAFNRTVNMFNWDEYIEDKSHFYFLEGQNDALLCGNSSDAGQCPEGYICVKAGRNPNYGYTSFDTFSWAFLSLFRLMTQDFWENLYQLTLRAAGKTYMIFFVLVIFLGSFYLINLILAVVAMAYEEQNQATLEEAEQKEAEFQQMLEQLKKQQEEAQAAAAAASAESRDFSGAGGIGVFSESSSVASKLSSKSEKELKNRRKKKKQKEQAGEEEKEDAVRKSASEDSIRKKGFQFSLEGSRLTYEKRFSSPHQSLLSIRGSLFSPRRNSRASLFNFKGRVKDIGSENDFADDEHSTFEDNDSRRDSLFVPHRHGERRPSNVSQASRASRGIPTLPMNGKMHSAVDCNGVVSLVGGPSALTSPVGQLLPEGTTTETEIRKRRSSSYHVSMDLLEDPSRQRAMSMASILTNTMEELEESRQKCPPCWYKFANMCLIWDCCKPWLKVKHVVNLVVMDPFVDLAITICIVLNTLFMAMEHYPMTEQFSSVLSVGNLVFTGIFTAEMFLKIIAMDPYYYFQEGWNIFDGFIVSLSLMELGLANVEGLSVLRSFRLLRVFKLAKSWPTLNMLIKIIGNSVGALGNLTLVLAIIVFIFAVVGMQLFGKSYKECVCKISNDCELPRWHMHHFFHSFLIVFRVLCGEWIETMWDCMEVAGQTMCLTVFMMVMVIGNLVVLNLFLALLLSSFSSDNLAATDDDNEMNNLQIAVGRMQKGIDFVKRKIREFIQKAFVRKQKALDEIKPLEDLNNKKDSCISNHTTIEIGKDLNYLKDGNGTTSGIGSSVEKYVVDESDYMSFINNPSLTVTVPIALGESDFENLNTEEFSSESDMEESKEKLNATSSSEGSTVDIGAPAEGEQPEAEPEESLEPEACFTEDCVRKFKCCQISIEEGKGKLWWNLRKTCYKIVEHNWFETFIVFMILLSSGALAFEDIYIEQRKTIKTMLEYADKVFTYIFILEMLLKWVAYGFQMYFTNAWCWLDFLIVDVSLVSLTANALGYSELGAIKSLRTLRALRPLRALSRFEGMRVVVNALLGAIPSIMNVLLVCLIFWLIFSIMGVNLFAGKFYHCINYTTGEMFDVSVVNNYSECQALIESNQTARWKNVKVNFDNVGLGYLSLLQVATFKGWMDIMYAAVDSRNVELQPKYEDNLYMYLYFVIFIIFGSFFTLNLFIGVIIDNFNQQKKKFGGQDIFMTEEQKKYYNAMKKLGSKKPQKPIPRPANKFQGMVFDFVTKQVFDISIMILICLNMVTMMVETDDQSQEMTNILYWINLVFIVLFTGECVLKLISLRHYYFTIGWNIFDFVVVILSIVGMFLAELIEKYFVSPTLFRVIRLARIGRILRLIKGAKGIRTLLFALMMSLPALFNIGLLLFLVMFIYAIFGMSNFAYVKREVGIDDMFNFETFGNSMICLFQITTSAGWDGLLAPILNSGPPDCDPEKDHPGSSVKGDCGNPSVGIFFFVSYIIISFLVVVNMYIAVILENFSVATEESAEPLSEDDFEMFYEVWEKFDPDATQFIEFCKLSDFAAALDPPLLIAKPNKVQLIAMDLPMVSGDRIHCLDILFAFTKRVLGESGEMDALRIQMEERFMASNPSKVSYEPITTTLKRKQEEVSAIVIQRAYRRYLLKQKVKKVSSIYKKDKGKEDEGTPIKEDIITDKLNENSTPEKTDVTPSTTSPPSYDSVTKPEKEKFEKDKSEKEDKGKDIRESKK

## NS(=O)(=O)NC[C@H]1COc2ccccc2O1
[1]
  Activity: Non-toxic
[2]
  Activity: Active

## NS(=O)(=O)NC[C@@H]1COc2ccccc2O1
[3]
  Activity: Toxic
[2]
  Activity: Active

## NS(=O)(=O)NC[C@H]1COc2c(Cl)cccc2O1
[4]
  Activity: inactive
[5]
  IC50: 220 µM
[6]
  ED50: 124 mg/kg

## NS(=O)(=O)NC[C@H]1COc2ccc(Cl)cc2O1
[7]
  Activity: Non-toxic
[4]
  Activity: inactive

## COc1cccc2c1O[C@@H](CNS(N)(=O)=O)CO2
[8]
  Activity: inactive
[4]
  Activity: inactive
[5]
  IC50: 300 µM

## CCC1(C)CC(=O)NC1=O (centres undefined)
[9]
  Activity: inactive

## CCCC(CCC)C(=O)O
[9]
  Activity: Active
[10]
  Activity: Active

## Cc1ccc2c(c1)O[C@@H](CNS(N)(=O)=O)CO2
[11]
  Activity: inactive
[12]
  Activity: inactive

## NC(=O)N1c2ccccc2C=Cc2ccccc21
[9]
  Activity: Active
[13]
  Activity: Active

## NCC1(CC(=O)O)CCCCC1
[14]
  Activity: inactive

## NS(=O)(=O)NCC1CCc2ccccc2O1 (centres undefined)
[12]
  Activity: Active
[8]
  Activity: inactive

## NS(=O)(=O)NCC1Oc2ccc(Cl)cc2O1 (centres undefined)
[8]
  Activity: inactive
[4]
  Activity: inactive
